Reference: article PMC10720709, “Design, synthesis, and evaluation of 4-(3-(3,5-dimethylisoxazol-4-yl)benzyl)phthalazin-1(2H)-one derivatives: potent BRD4 inhibitors with anti-breast cancer activity” (Frontiers in Pharmacology, 2023)
Like-named read-outs stand apart in the source and are kept apart here.

What was measured:
MDA-MB-468 cells = assay: MTT cell viability assay, MDA-MB-468; format: cell-based; settings: Homo sapiens, read-out: Cytotoxicity IC50
Protocol: (§1) MDA-MB-468, MDA-MB-231, and MCF-7 cell lines were sourced from the National Collection of Authenticated Cell Culture, China. Cells were maintained in DMEM medium supplemented with 10% FBS and 1% penicillin/streptomycin, and incubated at 37°C in a humidified atmosphere containing 5% CO2.
(§2) The viability of cells was assessed using the MTT assay. Cells were seeded at a density of 3×10^3 cells per well in a 96-well plate and treated with varying concentrations (0.05, 0.2, 0.8, 3.2, 6.4, 12.8 µM) of the compounds for 72 h. Post-incubation, 100 µL of MTT solution (0.5 mg/mL) was added to each well and further incubated for 4 h. The resulting formazan crystals were dissolved in 150 µL DMSO, and the absorbance was measured at 570 nm using a microplate reader.

PARP1 = PARP1 (Homo sapiens, UniProt P09874); assay: PARP1 enzymatic activity ELISA; format: biochemical; settings: 0.5 μmol/L; read-out: PARP1 inhibition rate
Protocol: The inhibition of PARP1 enzymatic activity by the tested compounds was gauged using an ELISA in 96-well plates. Each well was pre-coated with histone (20 μg/mL) in 100 μL of PBS buffer and incubated overnight at 4 °C. […] This was followed by the addition of 5 μL of either the compound at varying concentrations or a solvent control. The reaction was initiated by adding 20 μL of PARP (50 ng/well) and incubating at 30°C for 1 h. Post-reaction, 50 µL of streptavidin-conjugated HRP was introduced, and the assay continued at 30°C for an additional 30 min. Finally, 100 μL of a solution containing H2O2 and luminol in 0.1 M citrate buffer (pH 5.4) was added, and the luminescent signal was recorded using a Molecular Devices SpectraMax M5 microplate reader.

MCF-7 cells [1] = assay: MTT cell viability assay, MCF-7; format: cell-based; settings: Homo sapiens, read-out: Cytotoxicity IC50
Protocol: as §1, §2

MDA-MB-231 cells = assay: MTT cell viability assay, MDA-MB-231; format: cell-based; settings: Homo sapiens, read-out: Cytotoxicity IC50
Protocol: as §1, §2

[2] = target: T1, recombinant BRD4 (BD1 + BD2) (Homo sapiens, UniProt O60885); assay: BRD4 TR-FRET activity assay; format: binding; settings: for inhibition at 1 µM: 1 μmol/L, read-out: BRD4 inhibition rate; for IC50: TR-FRET, BRD4 (BD1 + BD2);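 for all read-outs here: signal rises with BET ligand binding to the bromodomains, so inhibitors lower it, 120 min incubation at room temperature, 1% DMSO, wells lacking ligand as negative control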
T1 construct: employing a recombinant BRD4 (BD1 + BD2) and its corresponding ligand
Protocol: The BRD4 activity assay utilized TR-FRET technology, employing a recombinant BRD4 (BD1 + BD2) and its corresponding ligand. The TR-FRET signal generated in the assay is proportional to the ligand’s binding to the bromodomains. All reactions contained a final DMSO concentration of 1%. All binding reactions were conducted at room temperature. Each 20 µL reaction mixture, in assay buffer, comprised bromodomains, the BET Ligand, and the specified inhibitor amount. For the negative control, 5 µL of assay buffer replaced the BET ligand. After a 120-min incubation with the ligand, the TR-FRET signal was captured using a Tecan Infinite M1000 plate reader. IC50 values were determined through nonlinear regression with a normalized dose-response fit in Prism GraphPad software.

MCF-7 cells [3] = assay: Wound scratch cell migration assay; format: cell-based; settings: MCF-7, wound scratch, 1 μM, 48 h
Protocol: MCF-7 cells were seeded in 6-well plates at a density of 5×10^5 cells/well and incubated overnight. A scratch was made in the cell monolayer using a 10 µL pipette tip. […] Images were captured at 0, 12, 24, and 48-h intervals.

MCF-7 cells [4] = assay: Cell cycle analysis (PI, flow cytometry); format: cell-based; settings: MCF-7, 48 h
Protocol: The cell cycle distribution was assessed using the DNA Content Quantitation Assay Kit (Solarbio, China). […] After treatment, cells were harvested, fixed in ice-cold 70% ethanol overnight at 4°C, and subsequently washed with PBS. Cells were then treated with 100 μL RNase at 37°C for 30 min and stained with 400 μL PI for 30 min at 4°C in the dark. The cell cycle distribution was analyzed using an Accuri C6 Plus flow cytometer (BD Bioscience, CA), and data interpretation was performed with FlowJo software.

PARP1, sequence (P09874 whole entry): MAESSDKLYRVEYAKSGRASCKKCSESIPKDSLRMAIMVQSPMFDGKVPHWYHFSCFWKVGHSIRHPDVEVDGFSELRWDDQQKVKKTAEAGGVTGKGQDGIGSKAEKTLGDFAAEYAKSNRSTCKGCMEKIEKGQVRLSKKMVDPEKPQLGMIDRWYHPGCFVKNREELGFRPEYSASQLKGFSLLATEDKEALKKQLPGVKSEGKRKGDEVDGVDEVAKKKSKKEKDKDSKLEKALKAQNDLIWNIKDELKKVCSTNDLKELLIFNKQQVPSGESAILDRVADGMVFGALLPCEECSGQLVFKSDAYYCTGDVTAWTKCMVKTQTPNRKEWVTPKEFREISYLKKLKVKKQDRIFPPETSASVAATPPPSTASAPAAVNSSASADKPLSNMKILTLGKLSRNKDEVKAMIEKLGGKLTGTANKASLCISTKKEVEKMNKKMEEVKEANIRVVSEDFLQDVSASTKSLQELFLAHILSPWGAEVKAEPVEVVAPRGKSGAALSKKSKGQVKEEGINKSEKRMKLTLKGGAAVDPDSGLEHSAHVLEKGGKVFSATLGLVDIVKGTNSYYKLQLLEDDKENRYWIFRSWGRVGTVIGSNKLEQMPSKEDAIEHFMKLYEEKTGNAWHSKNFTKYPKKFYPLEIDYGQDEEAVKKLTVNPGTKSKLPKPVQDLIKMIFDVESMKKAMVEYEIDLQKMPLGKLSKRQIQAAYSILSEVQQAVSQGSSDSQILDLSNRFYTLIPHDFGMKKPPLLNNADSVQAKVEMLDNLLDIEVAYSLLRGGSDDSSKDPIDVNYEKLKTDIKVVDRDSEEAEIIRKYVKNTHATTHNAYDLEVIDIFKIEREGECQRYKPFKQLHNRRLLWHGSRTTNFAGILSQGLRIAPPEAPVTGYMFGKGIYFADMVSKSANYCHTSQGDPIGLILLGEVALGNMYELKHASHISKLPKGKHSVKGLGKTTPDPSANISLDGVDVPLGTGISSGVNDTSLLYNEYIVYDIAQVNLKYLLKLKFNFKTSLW

SMILES | melting point | inhibition at 1 µM [2] | also measured
Cc1noc(C)c1-c1cc(Cc2n[nH]c(=O)c3ccccc23)cc(C(=O)N2CC[C@H](O)C2)c1 [DDT14] | 204 to 205 °C | 74% | IC50 (MDA-MB-468 cells; MDA-MB-468, MTT, 72 h): 14.4 µM; inhibition at 0.5 µM (PARP1): 53%; IC50 (MCF-7 cells [1]; MCF7, MCF-7, MTT, 72 h): > 20 µM; IC50 (MDA-MB-231 cells; MDA-MB-231, MTT, 72 h): 8.29 µM; IC50 [2]: 1100 ± 450 nM
Cc1ccccc1C(=O)Nc1cc(Cc2n[nH]c(=O)c3ccccc23)cc(-c2c(C)noc2C)c1 [DDT23] | – | 97% | IC50 (MDA-MB-468 cells; MDA-MB-468, MTT, 72 h): 10.6 µM; IC50 (MCF-7 cells [1]; MCF7, MCF-7, MTT, 72 h): 18.7 µM; IC50 (MDA-MB-231 cells; MDA-MB-231, MTT, 72 h): 8.83 µM
Cc1cccc(C(=O)Nc2cc(Cc3n[nH]c(=O)c4ccccc34)cc(-c3c(C)noc3C)c2)c1 [DDT24] | > 250 °C | 91% | IC50 (MDA-MB-468 cells; MDA-MB-468, MTT, 72 h): 9.09 µM; IC50 (MCF-7 cells [1]; MCF7, MCF-7, MTT, 72 h): 12.8 µM; IC50 (MDA-MB-231 cells; MDA-MB-231, MTT, 72 h): 8.23 µM; IC50 [2]: 1880 ± 600 nM
Cc1ccc(C(=O)Nc2cc(Cc3n[nH]c(=O)c4ccccc34)cc(-c3c(C)noc3C)c2)cc1 [DDT25] | – | 76% | IC50 (MDA-MB-468 cells; MDA-MB-468, MTT, 72 h): 6.5 µM; IC50 (MCF-7 cells [1]; MCF7, MCF-7, MTT, 72 h): 12.5 µM; IC50 (MDA-MB-231 cells; MDA-MB-231, MTT, 72 h): 11.6 µM
CC(=O)Nc1cccc(CNc2cc(Cc3n[nH]c(=O)c4ccccc34)cc(-c3c(C)noc3C)c2)c1 [DDT47] | – | 78% | IC50 (MDA-MB-468 cells; MDA-MB-468, MTT, 72 h): 9.39 µM; IC50 (MCF-7 cells [1]; MCF7, MCF-7, MTT, 72 h): 11.7 µM; IC50 (MDA-MB-231 cells; MDA-MB-231, MTT, 72 h): 17.1 µM
CC(=O)Nc1ccc(CNc2cc(Cc3n[nH]c(=O)c4ccccc34)cc(-c3c(C)noc3C)c2)cc1 [DDT48] | – | 96% | IC50 (MDA-MB-468 cells; MDA-MB-468, MTT, 72 h): 9.09 µM; IC50 (MCF-7 cells [1]; MCF7, MCF-7, MTT, 72 h): > 20 µM; IC50 (MDA-MB-231 cells; MDA-MB-231, MTT, 72 h): 8.77 µM; IC50 [2]: 460 ± 170 nM
Cc1noc(C)c1-c1cc(Cc2n[nH]c(=O)c3ccccc23)cc(NCc2cccc(N)c2)c1 [DDT49] | – | 72% | inhibition at 0.5 µM (PARP1): 50%; IC50 [2]: 585 ± 225 nM
Cc1ccc(S(=O)(=O)Nc2cc(Cc3n[nH]c(=O)c4ccccc34)cc(-c3c(C)noc3C)c2)cc1 [DDT59] | – | 75% | IC50 (MDA-MB-468 cells; MDA-MB-468, MTT, 72 h): 11 µM; inhibition at 0.5 µM (PARP1): 8%; IC50 (MCF-7 cells [1]; MCF7, MCF-7, MTT, 72 h): > 20 µM; IC50 (MDA-MB-231 cells; MDA-MB-231, MTT, 72 h): 7.44 µM; IC50 [2]: 909 ± 396 nM
Cc1cc(C)cc(S(=O)(=O)Nc2cc(Cc3n[nH]c(=O)c4ccccc34)cc(-c3c(C)noc3C)c2)c1 [DDT60] | 155 to 156 °C | 28% | –
CCc1ccc(S(=O)(=O)Nc2cc(Cc3n[nH]c(=O)c4ccccc34)cc(-c3c(C)noc3C)c2)cc1 [DDT62] | 202 to 203 °C | 67% | –
CCCc1ccc(S(=O)(=O)Nc2cc(Cc3n[nH]c(=O)c4ccccc34)cc(-c3c(C)noc3C)c2)cc1 [DDT63] | 148 to 149 °C | 51% | –
Cc1noc(C)c1-c1cc(Cc2n[nH]c(=O)c3ccccc23)cc(NS(=O)(=O)c2ccc(C(C)(C)C)cc2)c1 [DDT65] | 154 to 155 °C | 44% | –
COc1cccc(S(=O)(=O)Nc2cc(Cc3n[nH]c(=O)c4ccccc34)cc(-c3c(C)noc3C)c2)c1 [DDT68] | 184 to 185 °C | 59% | –
COc1ccc(S(=O)(=O)Nc2cc(Cc3n[nH]c(=O)c4ccccc34)cc(-c3c(C)noc3C)c2)cc1 [DDT69] | 155 to 156 °C | 70% | –
COc1ccc(S(=O)(=O)Nc2cc(Cc3n[nH]c(=O)c4ccccc34)cc(-c3c(C)noc3C)c2)cc1OC [DDT70] | 165 to 166 °C | 32% | –
CC(=O)Nc1cccc(S(=O)(=O)Nc2cc(Cc3n[nH]c(=O)c4ccccc34)cc(-c3c(C)noc3C)c2)c1 [DDT72] | 192 to 193 °C | 4% | –

SMILES | melting point | inhibition at 1 µM [2] | also measured
Cc1noc(C)c1-c1cc(Cc2n[nH]c(=O)c3ccccc23)cc(NS(=O)(=O)c2ccc(OCc3ccccc3)cc2)c1 [DDT74] | 148 to 149 °C | 34% | –
Cc1noc(C)c1-c1cc(Cc2n[nH]c(=O)c3ccccc23)cc(NS(=O)(=O)c2ccc3c(c2)CCO3)c1 [DDT75] | 162 to 163 °C | 42% | –
Cc1cccc(CS(=O)(=O)Nc2cc(Cc3n[nH]c(=O)c4ccccc34)cc(-c3c(C)noc3C)c2)c1 [DDT77] | 154 to 155 °C | 38% | –
Cc1noc(C)c1-c1cc(Cc2n[nH]c(=O)c3ccccc23)cc(NS(=O)(=O)c2ccc(O)cc2)c1 [DDT79] | 238 to 239 °C | 7% | –
Cc1noc(C)c1-c1cc(Cc2n[nH]c(=O)c3ccccc23)cc(NS(=O)(=O)c2ccccc2C(F)(F)F)c1 [DDT80] | 197 to 198 °C | 15% | –
Cc1noc(C)c1-c1cc(Cc2n[nH]c(=O)c3ccccc23)cc(NS(=O)(=O)c2ccc(C(F)(F)F)cc2)c1 [DDT82] | 193 to 194 °C | 24% | –
Cc1noc(C)c1-c1cc(Cc2n[nH]c(=O)c3ccccc23)cc(NS(=O)(=O)c2ccc(F)cc2)c1 [DDT86] | 151 to 152 °C | 7% | –
Cc1noc(C)c1-c1cc(Cc2n[nH]c(=O)c3ccccc23)cc(NS(=O)(=O)c2ccccc2Cl)c1 [DDT87] | 174 to 175 °C | 72% | –
Cc1noc(C)c1-c1cc(Cc2n[nH]c(=O)c3ccccc23)cc(NS(=O)(=O)c2cccc(Cl)c2)c1 [DDT88] | 142 to 143 °C | 17% | –
Cc1noc(C)c1-c1cc(Cc2n[nH]c(=O)c3ccccc23)cc(NS(=O)(=O)c2ccc(Cl)cc2)c1 [DDT89] | 147 to 148 °C | 72% | –
Cc1noc(C)c1-c1cc(Cc2n[nH]c(=O)c3ccccc23)cc(NS(=O)(=O)c2ccccc2Br)c1 [DDT91] | 171 to 172 °C | 8% | –
Cc1noc(C)c1-c1cc(Cc2n[nH]c(=O)c3ccccc23)cc(NS(=O)(=O)c2cccc(Br)c2)c1 [DDT92] | 147 to 148 °C | 4% | –
Cc1noc(C)c1-c1cc(Cc2n[nH]c(=O)c3ccccc23)cc(NS(=O)(=O)c2cccc(S(C)(=O)=O)c2)c1 [DDT94] | 243 to 244 °C | 5% | –
Cc1sc2c(c1C)C(c1ccc(Cl)cc1)=N[C@@H](CC(=O)OC(C)(C)C)c1nnc(C)n1-2 [JQ1, reference compound] | – | – | IC50 (MDA-MB-468 cells; MDA-MB-468, 72 h): 3.24 µM; inhibition of cell migration (in words) (MCF-7 cells [3]): most potent inhibitory effect; IC50 (MCF-7 cells [1]; MCF7, 72 h): 18.4 µM; IC50 (MDA-MB-231 cells; MDA-MB-231, 72 h): 4.83 µM
O=C(c1cc(Cc2n[nH]c(=O)c3ccccc23)ccc1F)N1CCN(C(=O)C2CC2)CC1 [Olaparib, reference compound] | – | – | IC50 (MDA-MB-468 cells; MDA-MB-468, MTT, 72 h): 8.09 µM; inhibition of cell migration (in words) (MCF-7 cells [3]): no inhibitory activity; IC50 (MCF-7 cells [1]; MCF7, MCF-7, MTT, 72 h): 8.7 µM; IC50 (MDA-MB-231 cells; MDA-MB-231, MTT, 72 h): 8.17 µM; effect on cell cycle (in words) (MCF-7 cells [4]): did not influence the MCF-7 cell cycle
